Measured values as given in the supplement of paper PMC10331698.
± gives the standard deviation of the averaged measurements.

How the values were obtained:
Test in all cases: level (log10 ratio to DMSO vehicle control); higher = higher biomarker level / cell amount than vehicle control
[1] = compound: C=C(C)C(=O)OCCC(F)(F)C(F)(F)C(F)(F)C(F)(F)C(F)(F)C(F)(F)F [6:2 Fluorotelomer methacrylate]; conditions: in DMSO
Protocol: (§1)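 BioMAP Diversity Plus panel of 12 human primary cell co-culture systems (3C, 4H, LPS, SAg, BT, BF4T, BE3C, CASM3C, HDF3CGF, KF3CT, MyoF, Mphg). Compounds were added 1 h before stimulation and left for 24 h (MyoF 48 h; BT 72 h for soluble read-outs or 6 d for IgG). Biomarkers were read by ELISA, cytotoxicity by SRB, PBMC viability and proliferation by Alamar Blue. Each well value was divided by the mean of 8 DMSO control wells on the same plate and log10 transformed; duplicate blinded samples were tested at 4 concentrations.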

[2] = compound: C=CC(=O)OCC(F)(F)C(F)(F)C(F)(F)COC(=O)C=C [1H,1H,5H,5H-Perfluoro-1,5-pentanediol diacrylate]; conditions: 6700 nM; in DMSO
Protocol: as §1

[3] = compound: COC(=O)C(F)(F)C(F)(F)OC(F)(C(F)(F)F)C(F)(F)OC(F)=C(F)F [Methyl perfluoro(3-(1-ethenyloxypropan-2-yloxy)propanoate)]; conditions: in DMSO
Protocol: as §1

[4] = compound: FC(F)(F)C(F)(F)C(F)(F)C(F)(F)C(F)(F)C(F)(F)C(F)(F)I [1-Iodopentadecafluoroheptane]; conditions: in DMSO
Protocol: as §1

[5] = compound: FC(F)(F)C(F)(F)C(F)(F)C(F)(F)C(F)(F)C(F)(F)CC1CO1 [3-(Perfluorohexyl)-1,2-epoxypropane]; conditions: in DMSO
Protocol: as §1

[6] = compound: FC(F)(F)C(F)(F)C(F)(F)CC1CO1 [1H,1H-Heptafluorobutyl epoxide]; conditions: in DMSO
Protocol: as §1

Heptafluorobutyl iodide = compound: FC(F)(F)C(F)(F)C(F)(F)CI [Heptafluorobutyl iodide]; conditions: in DMSO
Protocol: as §1

[7] = compound: FC(F)(F)C(F)(F)CNCC(F)(F)C(F)(F)F [Bis(1H,1H-perfluoropropyl)amine]; conditions: in DMSO
Protocol: as §1

Octafluoroadipamide = compound: NC(=O)C(F)(F)C(F)(F)C(F)(F)C(F)(F)C(N)=O [Octafluoroadipamide]; conditions: in DMSO
Protocol: as §1

Nonafluoropentanamide = compound: NC(=O)C(F)(F)C(F)(F)C(F)(F)C(F)(F)F [Nonafluoropentanamide]; conditions: in DMSO
Protocol: as §1

[8] = compound: NC(=O)C(F)(F)C(F)(F)C(F)(F)C(F)F; conditions: in DMSO
Protocol: as §1

[9] = compound: NS(=O)(=O)C(F)(F)C(F)(F)C(F)(F)C(F)(F)C(F)(F)C(F)(F)F [Perfluorohexanesulfonamide]; conditions: in DMSO
Protocol: as §1

[10] = compound: O=C(O)C(F)(F)C(F)(F)C(F)(F)C(F)(F)C(F)(F)C(F)(F)C(F)(F)C(F)(F)C(F)(F)C(F)F [11-H-Perfluoroundecanoic acid]; conditions: in DMSO
Protocol: as §1

[11] = compound: O=C(O)C=CC(F)(C(F)(F)F)C(F)(F)F [3-(Perfluoroisopropyl)-2-propenoic acid]; conditions: in DMSO
Protocol: as §1

[12] = compound: O=S(=O)(Cl)C(F)(F)C(F)(F)C(F)(F)C(F)(F)C(F)(F)C(F)(F)C(F)(F)C(F)(F)F [Perfluoro-1-octanesulfonyl chloride]; conditions: in DMSO
Protocol: as §1

[13] = compound: O=S(=O)(F)C(F)(F)C(F)(F)C(F)(F)C(F)(F)C(F)(F)C(F)(F)C(F)(F)C(F)(F)F [Perfluorooctanesulfonyl fluoride]; conditions: in DMSO
Protocol: as §1

[14] = compound: O=S(=O)(O)C(F)(F)C(F)(F)C(F)(F)C(F)(F)C(F)(F)C(F)(F)C(F)(F)C(F)(F)C(F)(F)C(F)(F)F [Sodium perfluorodecanesulfonate]; conditions: in DMSO
Protocol: as §1

[15] = compound: O=S(=O)(O)CCC(F)(F)C(F)(F)C(F)(F)C(F)(F)C(F)(F)C(F)(F)F [6:2 Fluorotelomer sulfonic acid]; conditions: in DMSO
Protocol: as §1

Hexafluoroamylene glycol = compound: OCC(F)(F)C(F)(F)C(F)(F)CO [Hexafluoroamylene glycol]; conditions: in DMSO
Protocol: as §1

## 4H:CD106/VCAM-1
[1]; 6700 nM
  level (log10): -0.002 ± 0.021
[1]; 20000 nM
  level (log10): -0.013 ± 0.0099
[1]; 60000 nM
  level (log10): -0.0045 ± 0.015
[2]
  level (log10): -0.032 ± 0.045
[3]; 6700 nM
  level (log10): -0.01 ± 0.0028
[3]; 20000 nM
  level (log10): -0.0385 ± 0.0035
[4]; 6700 nM
  level (log10): -0.018 ± 0.0042
[4]; 20000 nM
  level (log10): -0.0005 ± 0.0035
[5]; 6700 nM
  level (log10): -0.002 ± 0.027
[5]; 20000 nM
  level (log10): -0.0225 ± 0.00071
[5]; 60000 nM
  level (log10): -0.0025 ± 0.011
[6]; 6700 nM
  level (log10): -0.0035 ± 0.033
[6]; 20000 nM
  level (log10): 0.0125 ± 0.073
[6]; 60000 nM
  level (log10): 0.007 ± 0.078
Heptafluorobutyl iodide; 6700 nM
  level (log10): -0.0215 ± 0.005
Heptafluorobutyl iodide; 20000 nM
  level (log10): -0.0345 ± 0.026
Heptafluorobutyl iodide; 60000 nM
  level (log10): 0.0155 ± 0.012
[7]; 6700 nM
  level (log10): 0.0125 ± 0.016
[7]; 20000 nM
  level (log10): 0.006 ± 0.035
[7]; 60000 nM
  level (log10): 0.0155 ± 0.039
Octafluoroadipamide; 6700 nM
  level (log10): 0.0105 ± 0.028
Octafluoroadipamide; 20000 nM
  level (log10): 0.015
Octafluoroadipamide; 60000 nM
  level (log10): 0.0235 ± 0.018
Nonafluoropentanamide; 6700 nM
  level (log10): 0.003 ± 0.0028
Nonafluoropentanamide; 20000 nM
  level (log10): 0.0095 ± 0.0064
Nonafluoropentanamide; 60000 nM
  level (log10): 0.008 ± 0.013
[8]; 6700 nM
  level (log10): -0.0145 ± 0.005
[8]; 20000 nM
  level (log10): -0.021 ± 0.0085
[8]; 60000 nM
  level (log10): -0.007 ± 0.0057
[9]; 6700 nM
  level (log10): -0.0245 ± 0.011
[9]; 20000 nM
  level (log10): -0.0165 ± 0.015
[9]; 60000 nM
  level (log10): -0.08 ± 0.034
[10]; 6700 nM
  level (log10): -0.0135 ± 0.016
[10]; 20000 nM
  level (log10): -0.0015 ± 0.03
[11]; 6700 nM
  level (log10): 0.0275 ± 0.011
[11]; 20000 nM
  level (log10): -0.0175 ± 0.019
[11]; 60000 nM
  level (log10): 0.016 ± 0.0014
[12]; 6700 nM
  level (log10): -0.0025 ± 0.052
[12]; 20000 nM
  level (log10): -0.0035 ± 0.023
[12]; 60000 nM
  level (log10): -0.0305 ± 0.0064
[13]; 6700 nM
  level (log10): 0.0005 ± 0.015
[13]; 20000 nM
  level (log10): -0.0105 ± 0.012
[13]; 60000 nM
  level (log10): -0.012 ± 0.011
[14]; 1500 nM
  level (log10): -0.018 ± 0.011
[14]; 4400 nM
  level (log10): -0.0295 ± 0.005
[14]; 13000 nM
  level (log10): -0.007 ± 0.0085
[14]; 40000 nM
  level (log10): -0.0615 ± 0.0092
[15]; 6700 nM
  level (log10): -0.0415 ± 0.0078
[15]; 20000 nM
  level (log10): -0.0245 ± 0.0021
[15]; 60000 nM
  level (log10): -0.0625 ± 0.033
Hexafluoroamylene glycol; 6700 nM
  level (log10): 0.0165 ± 0.029
Hexafluoroamylene glycol; 20000 nM
  level (log10): 0.0075 ± 0.013
Hexafluoroamylene glycol; 60000 nM
  level (log10): 0.033 ± 0.017

## 4H:VEGFR2
[1]; 6700 nM
  level (log10): -0.047 ± 0.034
[1]; 20000 nM
  level (log10): -0.0305 ± 0.00071
[1]; 60000 nM
  level (log10): -0.0265 ± 0.039
[2]
  level (log10): -0.0225 ± 0.035
[3]; 6700 nM
  level (log10): -0.008 ± 0.014
[3]; 20000 nM
  level (log10): 0.006 ± 0.034
[4]; 6700 nM
  level (log10): 0.0055 ± 0.0092
[4]; 20000 nM
  level (log10): 0.06 ± 0.024
[5]; 6700 nM
  level (log10): -0.0015 ± 0.019
[5]; 20000 nM
  level (log10): 0.0235 ± 0.011
[5]; 60000 nM
  level (log10): 0.017 ± 0.014
[6]; 6700 nM
  level (log10): -0.012 ± 0.0071
[6]; 20000 nM
  level (log10): 0 ± 0.017
[6]; 60000 nM
  level (log10): 0.031 ± 0.11
Heptafluorobutyl iodide; 6700 nM
  level (log10): -0.0075 ± 0.005
Heptafluorobutyl iodide; 20000 nM
  level (log10): 0.0155 ± 0.063
Heptafluorobutyl iodide; 60000 nM
  level (log10): 0.0445 ± 0.036
[7]; 6700 nM
  level (log10): 0.0065 ± 0.028
[7]; 20000 nM
  level (log10): 0.0135 ± 0.023
[7]; 60000 nM
  level (log10): -0.009
Octafluoroadipamide; 6700 nM
  level (log10): 0.012 ± 0.05
Octafluoroadipamide; 20000 nM
  level (log10): 0.025 ± 0.0057
Octafluoroadipamide; 60000 nM
  level (log10): 0.0225 ± 0.03
Nonafluoropentanamide; 6700 nM
  level (log10): -0.0435 ± 0.0078
Nonafluoropentanamide; 20000 nM
  level (log10): -0.0135 ± 0.029
Nonafluoropentanamide; 60000 nM
  level (log10): -0.015
[8]; 6700 nM
  level (log10): 0 ± 0.0042
[8]; 20000 nM
  level (log10): -0.006 ± 0.0099
[8]; 60000 nM
  level (log10): -0.001 ± 0.054
[9]; 6700 nM
  level (log10): -0.008 ± 0.023
[9]; 20000 nM
  level (log10): -0.023 ± 0.013
[9]; 60000 nM
  level (log10): -0.0965 ± 0.022
[10]; 6700 nM
  level (log10): -0.0245 ± 0.032
[10]; 20000 nM
  level (log10): 0.001 ± 0.047
[11]; 6700 nM
  level (log10): -0.0145 ± 0.019
[11]; 20000 nM
  level (log10): 0.004 ± 0.05
[11]; 60000 nM
  level (log10): 0.01 ± 0.045
[12]; 6700 nM
  level (log10): 0.0185 ± 0.019
[12]; 20000 nM
  level (log10): 0.014 ± 0.0085
[12]; 60000 nM
  level (log10): 0.0265 ± 0.0078
[13]; 6700 nM
  level (log10): -0.001 ± 0.03
[13]; 20000 nM
  level (log10): -0.01 ± 0.021
[13]; 60000 nM
  level (log10): 0 ± 0.027
[14]; 1500 nM
  level (log10): 0.003 ± 0.013
[14]; 4400 nM
  level (log10): -0.03 ± 0.059
[14]; 13000 nM
  level (log10): -0.02 ± 0.073
[14]; 40000 nM
  level (log10): 0.024 ± 0.047
[15]; 6700 nM
  level (log10): -0.0215 ± 0.012
[15]; 20000 nM
  level (log10): -0.101 ± 0.0064
[15]; 60000 nM
  level (log10): -0.026 ± 0.021
Hexafluoroamylene glycol; 6700 nM
  level (log10): -0.061 ± 0.023
Hexafluoroamylene glycol; 20000 nM
  level (log10): -0.032 ± 0.013
Hexafluoroamylene glycol; 60000 nM
  level (log10): -0.0255 ± 0.0021
